Consider eleven compounds from patent US4766147A, “Novel 5-membered cyclic compounds, process for production thereof, and pharmaceutical use thereof” (priority 1982, dated 1988).

≈ marks a conversion by molar mass, not a printed value.

Series [1] relates to L1210 leukemia cells. Nature of the series: Inhibiting proliferation of L1210 leukemia cell. The format is cell-based. Conditions: Mus musculus, 96 h, 1×10^5 cells/ml, RPMI with 10% FCS, 37° C., 4 days, trypan blue. Here is the method:
Measurement of the Action of Inhibiting Proliferation of L1210 Leukemia Cell
L1210 leukemia cells were added to an RPMI medium containing 10% FCS (fetal calf serum), and the concentration of the cells was adjusted to 1×10^5 cells/ml. Each of the test compounds shown in Table 5 was dissolved in 99.5% ethanol. Prior to use, the final concentration of the ethanol solution was adjusted to less than 0.1%, and it was added to the culture medium. The culture medium was then maintained at 37° C. in a stationary condition for 4 days. After the cultivation, the number of surviving cells was measured by dyeing with trypan blue. As a control, 0.1% ethanol was used. A dose-reaction curve was plotted from the ratios of proliferation against the control, and IC50 was determined.

A short description of series [2]: Cyto protection: cytotoxicity on aortic smooth muscle cells. The format is cell-based. Conditions: aortic smooth muscle cells; rat cells, MEM containing 10% CS; read-out: LD50 Aortic smooth muscle cells. Here is the method: (§1) Measurement of Cyto Protection
(§2) Stomach epithelial cells taken from a rabbit fetus and aortic smooth muscle cells from a rat were used as normal cells, and L1210 leukemia cells were used as cancer cells. The cytotoxicity of each of the compounds shown in Table 6 on the normal cells was xamined.
(§3) Specifically, the stomach epithelial cells were cultivated in DME containing 20% FCS, and the aortic smooth muscle cells were cultivated in MEM containing 10% CS. Each of the test compounds was dissolved in ethanol and added to the culture broth in an amount of 0.1%. The mixture was filtered through a millipore filter.
(§4) The cytotoxicities LD50) of each of the test compounds on the stomach epithelial cells and the aortic smooth muscle cells were determined. Furthermore, from the LFD50 values, the safety coefficient (LD50 on the normal cells/LD50 on the L1210 cells) was calculated, and the results are also shown in Table 6.

Series [3] has as its system L1210 leukemia cells. Nature of the series: Cyto protection: cytotoxicity on L1210 leukemia cells and safety coefficient. The format is cell-based, mouse. Conditions: for Safety coefficient: LD50 on the normal cells/LD50 on the L1210 cells. The method, then: as §1, §2
The cytotoxicities LD50) of each of the test compounds on the stomach epithelial cells and the aortic smooth muscle cells were determined.

Series [4] is described as follows: Cyto protection: cytotoxicity on stomach epithelial cells. The format is cell-based. Conditions: stomach epithelial cells; rabbit fetus cells, DME containing 20% FCS; read-out: LD50 Stomach epitherial cells. The method, then: as §1, §2, §3, §4
Series [5] is described as follows: Acute toxicity. Conditions: mouse, in vivo, iv, four weeks old LR strain male mice (SPF). The method, then:
Measurement of Acute Toxicity
The acute toxicity of one typical compound of this invention was measured by a customary method using four weeks old LR strain male mice (SPF).

The subject of series [6] is Ehrlich ascites carcinoma cells. Nature of the series: Antitumor effect on Ehrlich ascites carcinoma in ICR mice. The format is in vivo. Conditions: 30 mg/kg/day i.p. (methyl ester) or 20 mg/kg/day i.p. (12-epimer) for 5 days; for average number of days of survival: from 24 hours after tumor inoculation. The method, then:
Measurement of the Antitumor Effect On Ehrich Ascites Carcinoma
1×10^5 Ehrlich ascites carcinoma cells were intraperitoneally administred to ICR mice. After the lapse of 24 hours, 30 mg/kg/day of 7(E)-7,8-dehydroprostaglandin A1 methyl ester and 20 mg/kg/day of its 12-epimer were each intraperitoneally administered to the mice for 5 days. The periods of survival of these animals were examined.

For series [7], the system named is mouse leukemia cell L1210. Conditions: Biochem. Biophys. Res. Commn., 105, 956 (1982); cited from earlier work.
Series [8] deals with aortic smooth muscle cells. Nature of the series: Cyto protection: cytotoxicity on aortic smooth muscle cells. It is filed as cell-based. Conditions: rat cells, MEM containing 10% CS. Here is the method:
as §1, §2, §3, §4

Series [9] concerns Stomach epithelial cells. Nature of the series: Cyto protection: cytotoxicity on stomach epithelial cells. It is filed as cell-based. Conditions: rabbit fetus cells, DME containing 20% FCS. Here is the method:
as §1, §2, §3, §4

For `CCCCCCC=CC1C=CC(=O)C1=CCCCCCC(=O)OC` (stereo not shown) [4-(1-octenyl)-5-(6-methoxycarbonylhexylidene)-2-cyclopentenone], in series [1], the IC50 amounted to 0.3 µg/mL (≈ 0.902 µM).

In the case of `COC(=O)CCCC#CC(O)C1C(=O)C=CC1C=CC(O)C1CCCC1` (stereo not shown) [4-(3-hydroxy-3-cyclopentyl-1-propenyl)-5-(1-hydroxy-6-methoxycarbonyl-2-hexyn-1-yl)-2-cyclopentenone], the IC50 in series [1] was 0.2 µg/mL (≈ 0.555 µM).

In the case of `CCCCC[C@H](O)/C=C/[C@H]1C=CC(=O)/C1=C/CCCCCC(=O)O` [7(E)-7,8-Dehydroprostaglandin A1], the IC50 is 0.4 µg/mL (≈ 1.2 µM) in series [1] and 0.2 to 0.3 µg/mL (≈ 0.598 to 0.897 µM) in [3] (Mus musculus, L1210, cancer cells, read-out: LD50 L1210 leukemia cells). Moreover, the CC50 in series [2] and in series [4] was 2 to 5 µg/mL (≈ 5.98 to 14.9 µM) throughout. Moreover, the Safety coefficient in [3] is 6-25. Further, in series [5], the median lethal dose (LD50) is 140 mg/kg.

Regarding `CCCCC[C@H](O)/C=C/[C@@H]1C=CC(=O)/C1=C/CCCCCC(=O)OC` [12-epi-(7E)-7,8-dehydro PGA1 methyl ester], the IC50 in [1] stood at 0.2 µg/mL (≈ 0.574 µM). Besides, in series [6], the “increase of life span (ILS %) over the control” value was 76.5%, the “ratio of survival for more than 60 days” value is 1/6 and the “average number of days of survival” value is 33.0 ± 9.8 days.

Regarding `CCCCC[C@H](O)/C=C/[C@H]1C(=O)C[C@H](O)[C@@H]1C/C=C\CCCC(=O)O` [PGD2], the “IC50 of PGD2 on L1210 cell” value in series [7] is reported as 2.4 micrograms/ml.

Turning to `CCCCC[C@H](O)/C=C/[C@H]1C=CC(=O)/C1=C/CCCCCC(=O)OC` [(7E)-7,8-dehydro PGA1 methyl ester], in series [6], the “increase of life span (ILS %) over the control” value is reported as 65.8%, the “ratio of survival for more than 60 days” value is given as 2/6 and the “average number of days of survival” value was determined as 31 ± 1.9 days.

In the case of `CCCCC[C@H](O)/C=C/[C@@H]1/C(=C\CCCCCC(=O)O)C(=O)C[C@H]1O` [7(E)-7,8-Dehydroprostaglandin E1], the IC50 in series [1] amounted to 0.7 µg/mL (≈ 1.99 µM).

The compound `COC(=O)CCCC#CC=C1C(=O)C=CC1C=CC(O)C1CCCC1` (stereo not shown) [4-(3-Hydroxy-3-cyclopentyl-1-propenyl)-5-(6-methoxycarbonyl-2-hexynylidene)-2-cyclopentenone] returned an IC50 in series [1] of 0.3 µg/mL (≈ 0.876 µM).

In series [1], `CCCCC1C=CC(=O)C1=CCCCCCC(=O)OC` (stereo not shown) [4-Butyl-5-(6-methoxycarbonylhexylidene)-2-cyclopentenone] had an IC50 of 0.3 µg/mL (≈ 1.08 µM).

In the case of `CCCCCC(O)C=CC1C=CC(=O)C1=CCCCCCC(=O)O` (stereo not shown) [12-Epimer of 7(E)-7,8-dehydroprostaglandin A1], in series [8], the “LD50 Aortic smooth muscle cells” value was in the range of 1 to 2 µg/mL. The Safety coefficient in [3] is on record as 2.5-10. The “LD50 L1210 leukemia cells” value in [3] (cancer cells) was in the range of 0.2 to 0.4 µg/mL. The “LD50 Stomach epitherial cells” value in [9] fell in the range of 1 to 2 µg/mL.

Turning to `COC12C(COC(N)=O)C3=C(C(=O)C(C)=C(N)C3=O)N1CC1NC12` (stereo not shown) [Mytomycin C, reference compound], the CC50 in series [2] was 0.01 µg/mL (≈ 0.0299 µM); in series [4], 0.01 to 0.02 µg/mL (≈ 0.0299 to 0.0598 µM).

What is called LD50 is the dose expected to kill half of the subjects tested. High values mean a less toxic substance, low ones a more toxic substance.
